Source: patent US11365186B2, “Substituted benzimidazoles, their preparation and their use as pharmaceuticals” (Epigenetix, Inc., priority 2015, dated 2022)

Tested on: human C-Myc transcription in MV-4-11 cells
Assay: Transcription of human C-Myc in human leukemic MV-4-11 cells (QuantiGene 2.0)
Type: cell-based
Settings: inhibition of C-Myc mRNA transcription, 4 hours treatment, read-out: IC50 MV-4-11 Cell
Description: b) Transcription of Human C-Myc in Human Leukemic MV-4-11 Cells:
The effect of compounds on transcription of human C-Myc gene is monitored in human B-myelomonocytic leukemia cell line MV-4-11 (from American Type Culture Collection (ATCC), Manassas, Va., USA) using QuantiGene 2.0 assay kit (Affymetrix, Santa Clara, Calif., USA).
Typically, 8,000 MV-4-11 cells are plated in sterile 96-well plates (Costar #3598 from Fisher Scientific Canada, Ottawa, Ontario, Canada) in Iscove's medium supplemented with 10% fetal bovine serum, glutamine (2 mM), and penicillin (100 I.U.) and streptomycin (100 μg/mL) (all from Wisent Inc., St. Bruno, Quebec, Canada). Compounds are dissolved in DMSO at 30 mM. A series of 1:3 dilutions are first made in DMSO, and further […] dilutions are made in serum-containing cell culture media. The final concentration of DMSO is 0.1% in cell culture media. After cells are treated with various concentrations of test compound for 4 hours, cells are lysed using Quantigene 2.0 sample processing kit (#QS0100). C-Myc mRNA is detected using a QuantiGene 2.0 assay kit (#QS0009) with gene-specific probe to human C-Myc (#SA-50182) following the manufacturer's recommendations. Luminescence signals are read on Flexstation II microplate reader (Molecular Devices, Sunnyvale, Calif., USA).

IC50: 17 nM
SMILES: COC1CC(c2nc3ccc(-c4cc(C)c(=O)n(C)c4)cc3n2CCOCC(F)(F)F)C1 (stereo not shown) [Compound 63, 5-[2-(3-methoxycyclobutyl)-1-(2-(2,2,2-trifluoroethoxy)ethyl)-1H-benzo[d]imidazol-6-yl]-1,3-dimethylpyridin-2(1H)-one]
